# Reference: US20240247048A1 (EMORY UNIVERSITY, priority 2021, published 2024)
# What was measured:
# [1] = system: MT5, KPC-Luc, Panc02, BXPC3, Capan-02 PDAC cell lines; test: cell viability assay (MTT) of PDAC cell lines; type: cell-based, mouse and human; details: 0-5 uM, 72 hours; FIG. 13E, 24a
# Procedure: (FIG. 24A) Percentage viability of murine (MT5, KPC.Luc, Panc02) and human (Capan02, BxPC3) PDAC cell lines cultured in the presence of different concentrations ranging from 0-5 μM of ANT008 for 72 hours is plotted. Confirmation of CRISPR-Cas9 KO of VIPR2 encoding VPAC2 receptor via (FIG. 24B) western blot; (FIG. 24C) RT-PCR using primers targeting exon 9-12 downstream of targeted site and (FIG. 24D) Sanger Sequencing showing the validation of in-del mutation in exon 2. In vitro MTT assay showing (FIG. 24E) Proliferation of WT and KO cells over 72 hours; (FIG. 24F) Percent viability of wild type (WT) and VPAC2 KO (KO) Panc02 cells treated with ANT008 and ANT308 at 3 μM for 72 hours. (FIG. 24G) Tumor growth curve of WT versus KO Panc02 cells in C57BL/6 mice following subcutaneous tumor implantation. Values represent median tumor volume±95% confidence interval. (FIG. 24H) Kaplan-Meier survival plots corresponding to results in FIG. 24G. Median survival time for WT is 21 days and 28 days for VPAC2 KO. Error bars represent mean and standard deviation. *p<0.05, **p<0.01.
# Cell viability assay. […] Cell viability was assessed using cell proliferation kit I from Roche (Basel, Switzerland), following the manufacturer's instructions. […] This was followed by incubation with solubilization buffer overnight and reading the absorbance at 570 nm. […]
# [2] = system: human T cells; test: activation of healthy-donor human T cells (anti-CD3), marker expression by flow cytometry; type: cell-based; details: 24 h post activation, 3 uM, vs scrambled peptide; FIG. 17d
# Procedure: Mean value from ‘Activated’ group shown with dotted line (---) for comparison. Responses from same healthy donors are shown with same color dots. Error bars are computed as the standard error of the mean (SEM) from 6 healthy donor samples.
# This study adopted an ex-vivo system using human T cells isolated from healthy donors to screen for novel VIP-R antagonist peptides. Human T cells were cultured over 6 or 24 hours with activation in the presence or absence of peptides and were assessed for percent CD69 surface expression by flow cytometry to measure the state of T cell activation. The activity of the peptides was determined by percent increase in CD69 expression relative to no peptide control. […] We also observed that amongst the donors, most were classified as average responders, with measured value for CD69 expression within the error bars while two others had measured values outside the error bars, one sample reflecting a super-responder (purple dots) and one sample reflecting a slow-responder (green dots) (FIGS. 10A and 10B). […]
# Human T cell activation and expansion. […] Cells were counted using Trypan blue dye and phenotyped via flow cytometry on day 9. […]
Sequence,viability and growth of PDAC cell lines in vitro [1],CD69 expression in CD4 and CD8 human T cells [2]
KPRRPYTDNYTRLRKQMAVKKYLNLILN [ANT008],"did not affect viability of PDAC cell lines in vitro, except a transient effect in MT5",
KPRRPYTSDYTRLRKQMAVKKYLNLILN [ANT308],,significantly increased
